Measured values taken from patent US8110555B2, “7-hydroxy chromones as potent antioxidants” (Unigen, Inc., priority 2002, dated 2012).

How the values were obtained:
[1] = test system: tyrosinase; conditions: cited from earlier work; for type of tyrosinase inhibition (Lineweaver Burk diagram): Yagi et al. (1987)
[2] = test system: spontaneous lipid peroxidation reaction; assay: Lipid Peroxidation Inhibition Capacity (LPIC) assay, MDA by thiobarbituric acid reaction; assay type: biochemical; conditions: for inhibition of lipid peroxidation: concentration 5 mg/mL in phosphate-saline buffer
Excerpt: The Lipid Peroxidation Inhibition Capacity (LPIC) assay is a method for measuring the ability of a sample to inhibit the initiation and propagation of a spontaneous lipid peroxidation reaction. Lipid peroxidation represents the major mechanism of lipid destruction occurring in an organism. This reaction is also an important source of reactive oxygen species. In part, lipid peroxidation is controlled in vivo by:
Lipid Peroxidation Inhibition Capacity (LPIC) is a measure of the anti-oxidative ability of a sample to inhibit the initiation and propagation of a spontaneous lipid peroxidation reaction. Malonyldialdehyde (MDA) is one of the major by-products of lipid peroxidation and is commonly used as a means of measuring the extent of lipid peroxidation. MDA concentrations were measured using the thiobarbituric acid reaction. Aloeresin A (purity 76.0%), vitamin C and cc-tocopherol were dissolved in a phosphate-saline buffer at four different concentrations (5 mg/mL, 10 mg/mL, 25 mg/mL and 50 mg/mL) and then tested directly using the experiment procedures described by Stocks et al. (1974) Clinical Sci. Mol. 47:215-222 and Yu and Lee, U.S. Pat. No. 5,939,395.

[3] = test system: oxygen radical damage of β-phycoerythrin (β-PE) indicator protein; assay: Oxygen Radical Absorption Capacity (ORAC) assay, whole ORAC; assay type: biochemical; conditions: FIG. 4
Excerpt: The Oxygen Radical Absorption Capacity (ORAC) assay is a method for measuring total serum antioxidant activity. (Cao et al. (1993) Free Rad. Biol. Med. 14:303-311). It can be used to quantitatively measure the total antioxidant capacity, as well as, qualitatively measure the levels of fast versus slow acting antioxidants in a blood serum sample. The assay utilizes the free radical sensitive fluorescent indicator protein β-phycoerythrin (β-PE) to monitor the effectiveness of various serum antioxidants in protecting β-PE from becoming damaged by free radicals. Assay results are quantitated by allowing the reaction to reach completion and then integrating the area under the kinetic curve relative to a blank reaction containing no antioxidant. The area under the curve is proportional to the concentration of all the antioxidants present in the sample. (DeLang and Glazer (1989) Analyt. Biochem. 177:300-306).
The chromones, Aloesin and Aloeresin A, were tested for Oxygen Radical Absorption Capacity (ORAC) relative to green tea extract which contains more than 50% total catechins and more than 25% epigallocatechingallate (EGCG) and grape seed extract which contains more than 95% total phenols. The ORAC assay measures the time-dependent decrease in the fluorescence of β-phycoerythrin (β-PE) indicator protein, resulting from oxygen radical damage. This assay provides a quantitative measure of the total antioxidant capacity to protect the free radical sensitive β-phycoerythrin. Each reaction was calibrated using the known standard Trolox, a water soluble vitamin E analogue. The ORAC value refers to the net protection area under the quenching curve of β-phycoerythrin in the presence of an antioxidant. The results of the assay are reported on the basis of 1 ORAC unit equals 1 μM of Trolox. Aloeresin A (purity 76.0%), aloesin (95.2%), green tea extract and grape seed extract were dissolved in deionized water (5% solution W/V) and tested directly using the experimental procedures described in Cao et al. (1994) Free Radic. Biol. Med. 16:135-137 and Prior and Cao (1999) Proc. Soc. […]

[4] = test system: oxygen radical damage of β-phycoerythrin (β-PE) indicator protein; assay: Fast and slow Oxygen Radical Absorption Capacity (ORAC); assay type: biochemical; conditions: for slow antioxidant activity, comparison in words: slow ORAC (50% of β-phycoerythrin survives)
Excerpt: Ascorbic acid, free phenolic compounds and thiol compounds are fast acting antioxidants. The slow antioxidant activity is a measure of the net protection area under the quenching curve of β-phycoerythrin in the presence of an antioxidant, which inhibits free radical propagation to the extent that 50% of β-phycoerythrin survives. Flavonoids, carotenoids and polyphenols are slow acting antioxidants. Aloeresin A (purity 76.0%), Aloesin (95.2%), green tea extract and grape seed extract, respectively were dissolved in deionized water (5% (W/V) solution) and tested directly using the experiment procedures described by Cao et al. (1994) Free Radic. Biol. Med. 16:135-137 and Prior and Cao (1999) Proc. Soc. Exp. Biol. Med. 220:255-261.

[5] = test system: oxygen radical damage of β-phycoerythrin (β-PE) indicator protein; assay: ORAC of a meta-berry fruit drink product with added aloeresin A; assay type: biochemical; conditions: aloeresin A at a concentration of 5%; FIG. 7
Procedure: A fruit drink product obtained from Oasis Wellness Network was determined, using the methods described in Example 3, to have an ORAC value of 3,129/oz. Aloeresin A, containing 76.0% aloeresin A was added to 40 mL of the drink (lot #0612, exp. […] These samples were then tested for whole ORAC value relative to the product in the absence of aloeresin A. using the experiment procedures illustrated described by Cao et al. (1994) Free Radic. Biol. Med. 16:135-137 and Prior and Cao (1999) Proc. Soc. Exp. Biol. Med. 220:255-261).

Compound: COc1cc(/C=C/C(=O)O[C@@H]2[C@@H](O)[C@H](O)[C@@H](CO)O[C@H]2c2c(O)cc(C)c3c(=O)cc(CC(C)=O)oc23)ccc1O [2″-feruloylaloesin, 2″-O-feruloylaloesin, reference compound]
- type of tyrosinase inhibition (Lineweaver Burk diagram) [1]: non-competitive inhibitor

Compound: Cc1c(C)c2c(c(C)c1O)CC[C@@](C)(CCC[C@H](C)CCC[C@H](C)CCCC(C)C)O2 [α-tocopherol, reference compound]
- inhibition of lipid peroxidation [2]: below 10%

Compound: CC(=O)Cc1cc(=O)c2c(C)cc(O)c([C@@H]3O[C@H](CO)[C@@H](O)[C@H](O)[C@H]3O)c2o1 [aloesin]
- type of tyrosinase inhibition (Lineweaver Burk diagram) [1]: competitive inhibitor
- IC50 ([1]; substrate L-DOPA, read-out: concentration for 50% inhibition of tyrosinase activity): 200 µM
- whole ORAC value, comparison in words ([3]; 5% (W/V) solution in deionized water, vs aloeresin A, green tea and grape seed extracts): much higher whole ORAC value than aloeresin A and the standardized green tea and grape seed extracts
- more active than grape seed extract at 50% ORAC conditions ([4]; 50% ORAC conditions, relative to grape seed extract): more than six times more active
- more active than green tea extract at 50% ORAC conditions ([4]; 50% ORAC conditions, relative to green tea extract): over 70%
- slow antioxidant activity, comparison in words ([4]; 5% (W/V) solution, FIG. 5): more potent as a slow acting antioxidant

Compound: CC(=O)Cc1cc(=O)c2c(C)cc(O)c([C@@H]3O[C@H](CO)[C@@H](O)[C@H](O)[C@H]3OC(=O)/C=C/c3ccc(O)cc3)c2o1 [aloeresin A]
- increase of ORAC value of a multiple berry fruit drink [5]: 31.3%
- inhibition of lipid peroxidation [2]: 30.7%
- lipid peroxidation inhibition capacity (LPIC), comparison in words ([2]; concentrations of 10 mg/mL to 50 mg/mL, vs α-tocopherol and vitamin C, FIG. 6): stronger antioxidant than either α-tocopherol or vitamin C
- whole ORAC value higher than grape seed extract ([3]; 5% (W/V) solution, difference to grape seed extract): 299
- whole ORAC value higher than green tea extract ([3]; 5% (W/V) solution, difference to green tea extract): 33
- fast antioxidant potency relative to the other three compositions ([4]; fast ORAC (95% of β-phycoerythrin survives), 5% (W/V) solution, FIG. 5): four times more potent as a fast antioxidant
- slow antioxidant activity, comparison in words ([4]; 5% (W/V) solution, FIG. 5): superior antioxidant relative to grape seed and green tea extracts
